{"source": "paper PMC9203742", "about": "(Nature Communications, 2022)", "key": {"[1]": {"target": "T1, mGlu1(N264H) mutant (Rattus norvegicus, UniProt P23385, N264H)", "T1 construct": "expressed in transfected cells; host or cells: HEK293", "T1 sequence (P23385 19-1199 N264H)": "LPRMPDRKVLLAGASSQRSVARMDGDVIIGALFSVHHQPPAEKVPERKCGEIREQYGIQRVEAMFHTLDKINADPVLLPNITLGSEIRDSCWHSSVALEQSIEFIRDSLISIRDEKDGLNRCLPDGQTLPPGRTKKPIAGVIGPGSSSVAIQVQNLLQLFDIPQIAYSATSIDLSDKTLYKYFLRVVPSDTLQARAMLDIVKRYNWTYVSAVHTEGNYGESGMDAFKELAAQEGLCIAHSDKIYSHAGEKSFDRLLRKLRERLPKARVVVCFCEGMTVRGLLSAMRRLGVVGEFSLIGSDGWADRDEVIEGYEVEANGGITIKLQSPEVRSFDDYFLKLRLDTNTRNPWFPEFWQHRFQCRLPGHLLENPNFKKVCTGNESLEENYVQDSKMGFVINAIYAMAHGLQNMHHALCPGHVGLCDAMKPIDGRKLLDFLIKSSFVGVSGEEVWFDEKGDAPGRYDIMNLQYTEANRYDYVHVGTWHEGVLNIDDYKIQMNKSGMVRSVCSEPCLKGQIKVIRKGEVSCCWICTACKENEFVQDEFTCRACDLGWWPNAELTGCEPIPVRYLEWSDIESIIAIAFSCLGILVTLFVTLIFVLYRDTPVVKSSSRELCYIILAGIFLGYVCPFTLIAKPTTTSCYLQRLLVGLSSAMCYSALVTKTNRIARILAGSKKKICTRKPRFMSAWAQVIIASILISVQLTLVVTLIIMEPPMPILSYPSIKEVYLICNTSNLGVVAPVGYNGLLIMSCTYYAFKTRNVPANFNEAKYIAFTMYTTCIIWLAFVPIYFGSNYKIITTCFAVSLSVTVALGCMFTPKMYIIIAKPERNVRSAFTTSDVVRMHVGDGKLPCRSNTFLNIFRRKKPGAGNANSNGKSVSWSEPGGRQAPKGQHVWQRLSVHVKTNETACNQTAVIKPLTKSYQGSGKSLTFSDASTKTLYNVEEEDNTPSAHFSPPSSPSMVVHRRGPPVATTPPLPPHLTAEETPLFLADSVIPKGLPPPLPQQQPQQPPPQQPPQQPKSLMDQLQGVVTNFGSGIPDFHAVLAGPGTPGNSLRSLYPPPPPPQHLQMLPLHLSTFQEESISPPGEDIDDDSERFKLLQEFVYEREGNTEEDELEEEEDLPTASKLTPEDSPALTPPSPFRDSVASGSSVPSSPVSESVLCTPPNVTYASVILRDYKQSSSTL", "assay": "Fura-2 Ca2+ imaging in HEK293 cells expressing mGlu1(N264H)", "format": "cell-based"}, "[2]": {"tested_on": "GFP-positive Purkinje cells infected with AAV-L7-mGlu1^WT", "assay": "chemLTD recording in GFP-positive Purkinje cells, slices infected with AAV-L7-mGlu1^WT", "format": "cell-based, mouse", "details": "for PF-EPSC amplitude normalized to time 0, individual Purkinje cells / PF-EPSC amplitude normalized to time 0, mean of cells: AAV-L7-mGlu1WT"}}, "note": "Several values for one entry are separate records, joined by “and”; a condition that tells them apart may be missing. Equal entries are not always repeated."}
{"smiles": "Cc1ccnc(-c2cc(COCCCS(=O)(=O)[O-])ccn2)c1.[Cl][Pd][Cl].[Na+]", "note": "[Pd(sulfo-bpy)]", "values": [{"measurement": "Receptor activation (Ca2+ response, Δratio)", "setting": "[1]; 3 μM Pd(bpy) derivative", "result": "successfully activated"}, {"measurement": "Ca2+ response, concentration dependence (Fig.4f)", "setting": "[1]; 10 µM Pd complex", "result": 0.4466}, {"measurement": "Ca2+ response, concentration dependence (Fig.4f)", "setting": "[1]; 30 µM Pd complex", "result": 0.3481}, {"measurement": "EC50", "setting": "[1]; HEK293 cells, Fura-2, read-out: EC50, Ca2+ response (Δratio)", "result": 620, "unit": "nM"}, {"measurement": "Ca2+ response to Pd complex, individual cells #1-#20 (Fig.4e)", "setting": "[1]; single-cell values", "result": "0.8899 and 0.2578 and 0.9132 and -0.001662 and 0.6326 and 0.4158 and 0.6574 and 1.139 and -0.004669 and -0.01576 and 0.5967 and 0.1275 and -0.001162 and 0.09754 and -0.01851 and 1.312 and 1.093 and 0.7225 and 0.4683 and -0.003462"}, {"measurement": "chemLTD: normalized PF-EPSC amplitude", "setting": "[2]; 1 μM Pd(sulfo-bpy), t = 31−35 min", "result": "88 ± 7", "unit": "%"}, {"measurement": "PF-EPSC amplitude normalized to time 0, individual Purkinje cells", "setting": "[2]; Time 11 min", "result": "0.5479 and 0.8947 and 0.9287 and 0.866 and 0.7568 and 0.3484 and 0.5317"}, {"measurement": "PF-EPSC amplitude normalized to time 0, mean of cells", "setting": "[2]; Time 11 min", "result": 0.6963}, {"measurement": "PF-EPSC amplitude normalized to time 0, individual Purkinje cells", "setting": "[2]; Time 12 min", "result": "0.6486 and 0.7811 and 0.7919 and 0.9348 and 0.7682 and 0.482 and 0.6188"}, {"measurement": "PF-EPSC amplitude normalized to time 0, mean of cells", "setting": "[2]; Time 12 min", "result": 0.7179}, {"measurement": "PF-EPSC amplitude normalized to time 0, individual Purkinje cells", "setting": "[2]; Time 13 min", "result": "0.8009 and 0.7991 and 0.7966 and 0.9028 and 0.809 and 0.4767 and 0.682"}, {"measurement": "PF-EPSC amplitude normalized to time 0, mean of cells", "setting": "[2]; Time 13 min", "result": 0.7525}, {"measurement": "PF-EPSC amplitude normalized to time 0, individual Purkinje cells", "setting": "[2]; Time 14 min", "result": "0.8571 and 0.8119 and 0.8301 and 0.9359 and 0.8385 and 0.4849 and 0.6984"}, {"measurement": "PF-EPSC amplitude normalized to time 0, mean of cells", "setting": "[2]; Time 14 min", "result": 0.7795}, {"measurement": "PF-EPSC amplitude normalized to time 0, individual Purkinje cells", "setting": "[2]; Time 15 min", "result": "0.8756 and 0.8988 and 0.8051 and 0.8932 and 0.8452 and 0.5102 and 0.7309"}, {"measurement": "PF-EPSC amplitude normalized to time 0, mean of cells", "setting": "[2]; Time 15 min", "result": 0.7942}, {"measurement": "PF-EPSC amplitude normalized to time 0, individual Purkinje cells", "setting": "[2]; Time 16 min", "result": "0.9159 and 0.9928 and 0.8396 and 0.8655 and 0.841 and 0.5112 and 0.7755"}, {"measurement": "PF-EPSC amplitude normalized to time 0, mean of cells", "setting": "[2]; Time 16 min", "result": 0.8202}, {"measurement": "PF-EPSC amplitude normalized to time 0, individual Purkinje cells", "setting": "[2]; Time 17 min", "result": "0.9971 and 1.069 and 0.8238 and 0.8887 and 0.8439 and 0.5087 and 0.7457"}, {"measurement": "PF-EPSC amplitude normalized to time 0, mean of cells", "setting": "[2]; Time 17 min", "result": 0.8396}, {"measurement": "PF-EPSC amplitude normalized to time 0, individual Purkinje cells", "setting": "[2]; Time 18 min", "result": "1.0288 and 1.119 and 0.837 and 0.8899 and 0.9043 and 0.5561 and 0.7949"}, {"measurement": "PF-EPSC amplitude normalized to time 0, mean of cells", "setting": "[2]; Time 18 min", "result": 0.8757}, {"measurement": "PF-EPSC amplitude normalized to time 0, individual Purkinje cells", "setting": "[2]; Time 19 min", "result": "0.8877 and 1.0703 and 0.9503 and 0.893 and 0.9667 and 0.5652 and 0.7658"}, {"measurement": "PF-EPSC amplitude normalized to time 0, mean of cells", "setting": "[2]; Time 19 min", "result": 0.8713}, {"measurement": "PF-EPSC amplitude normalized to time 0, individual Purkinje cells", "setting": "[2]; Time 20 min", "result": "1.078 and 1.198 and 0.844 and 0.865 and 1.008 and 0.5754 and 0.7572"}, {"measurement": "PF-EPSC amplitude normalized to time 0, mean of cells", "setting": "[2]; Time 20 min", "result": 0.9036}, {"measurement": "PF-EPSC amplitude normalized to time 0, individual Purkinje cells", "setting": "[2]; Time 21 min", "result": "0.9655 and 1.126 and 0.8812 and 0.8773 and 1.052 and 0.5885 and 0.7582"}, {"measurement": "PF-EPSC amplitude normalized to time 0, mean of cells", "setting": "[2]; Time 21 min", "result": 0.8926}, {"measurement": "PF-EPSC amplitude normalized to time 0, individual Purkinje cells", "setting": "[2]; Time 22 min", "result": "1.0065 and 1.121 and 0.9135 and 0.8951 and 1.02 and 0.5416 and 0.8122"}, {"measurement": "PF-EPSC amplitude normalized to time 0, mean of cells", "setting": "[2]; Time 22 min", "result": 0.9014}, {"measurement": "PF-EPSC amplitude normalized to time 0, individual Purkinje cells", "setting": "[2]; Time 23 min", "result": "1.013 and 1.096 and 0.8837 and 0.8809 and 1.04 and 0.5776 and 0.8487"}, {"measurement": "PF-EPSC amplitude normalized to time 0, mean of cells", "setting": "[2]; Time 23 min", "result": 0.9057}, {"measurement": "PF-EPSC amplitude normalized to time 0, individual Purkinje cells", "setting": "[2]; Time 24 min", "result": "1.0609 and 0.96 and 0.924 and 0.9136 and 1.045 and 0.5613 and 0.9388"}, {"measurement": "PF-EPSC amplitude normalized to time 0, mean of cells", "setting": "[2]; Time 24 min", "result": 0.9148}, {"measurement": "PF-EPSC amplitude normalized to time 0, individual Purkinje cells", "setting": "[2]; Time 25 min", "result": "1.0868 and 0.9289"}, {"measurement": "PF-EPSC amplitude normalized to time 0, mean of cells", "setting": "[2]; Time 25 min", "result": 0.9269}, {"measurement": "PF-EPSC amplitude normalized to time 0, mean of cells", "setting": "[2]; Time 26 min", "result": 0.8953}, {"measurement": "PF-EPSC amplitude normalized to time 0, mean of cells", "setting": "[2]; Time 27 min", "result": 0.9119}, {"measurement": "PF-EPSC amplitude normalized to time 0, mean of cells", "setting": "[2]; Time 28 min", "result": 0.9459}, {"measurement": "PF-EPSC amplitude normalized to time 0, mean of cells", "setting": "[2]; Time 29 min", "result": 0.9165}, {"measurement": "PF-EPSC amplitude normalized to time 0, mean of cells", "setting": "[2]; Time 30 min", "result": 0.8807}, {"measurement": "PF-EPSC amplitude normalized to time 0, mean of cells", "setting": "[2]; Time 31 min", "result": 0.8545}, {"measurement": "PF-EPSC amplitude normalized to time 0, mean of cells", "setting": "[2]; Time 32 min", "result": 0.8798}, {"measurement": "PF-EPSC amplitude normalized to time 0, mean of cells", "setting": "[2]; Time 33 min", "result": 0.8652}, {"measurement": "PF-EPSC amplitude normalized to time 0, mean of cells", "setting": "[2]; Time 34 min", "result": 0.8955}, {"measurement": "PF-EPSC amplitude normalized to time 0, mean of cells", "setting": "[2]; Time 35 min", "result": 0.9028}, {"measurement": "PF-EPSC amplitude normalized to time 0, mean of cells", "setting": "[2]; Time 36 min", "result": 0.8988}, {"measurement": "PF-EPSC amplitude normalized to time 0, mean of cells", "setting": "[2]; Time 37 min", "result": 0.876}]}
